PMC7714071, “Interaction of amyloid beta with humanin and acetylcholinesterase is modulated by ATP” (FEBS Open Bio, 2020)

Tested on: H1299 cells
Experiment: MTT cell viability, H1299
Type: cell-based, human
Conditions: 48 h, Fig. 7B; for effect of ATP on viability in HN-ID media: HN-immunodepleted media, versus no ATP; for effect on cell viability: control media, three experiments in triplicate
Experimental: Human NSCLC cell lines, A549 (ATCC CCL‐185) and H1299 (ATCC CRL‐5803), were purchased from the American Type Culture Collection (ATCC, Manassas, VA, USA). Cells were seeded as we reported earlier in 5 mL HyClone Dulbecco's modified Eagle's medium/nutrient mixture F‐12 (DMEM/F12) (GE Healthcare Life Sciences, Pittsburgh, PA, USA), supplemented with 10% Fetalgro bovine growth serum (FBS; RMBIO, Missoula, MT, USA), 50 U·mL^−1 penicillin, and […] streptomycin (Invitrogen, Life Technologies, Carlsbad, CA, USA) in 25‐cm^2 tissue culture flasks, and allowed to grow overnight in an incubator at 37 °C, 95% humidity, and 5% CO2. The cells were counted after trypan blue staining, with a hemocytometer.
The 3‐(4,5‐dimethylthiazol‐2‐yl)‐2,5‐diphenyl‐tetrazolium bromide (MTT) reduction assay (Sigma‐Aldrich), used to measure cell viability, was carried out as we reported earlier. Cells were seeded in 96‐well plates as indicated in 200 μL 10% FBS‐supplemented media per well and maintained overnight at 95% humidity and 5% CO2. After an overnight incubation, the media were replaced with 200 μL serum‐free media, and the cells were further incubated, without or with different treatments, for 24, 48, or 72 h. The final concentration of DMSO in each well never exceeded 0.1%. The cells were then incubated for 4 h with MTT (0.5 mg·mL^−1) in the dark. The media were carefully removed, and DMSO (100 μL) was added to dissolve the formazan crystals. The absorbance was measured at 570 nm in a plate reader. Untreated cells or wells containing only DMSO and media were used as a positive and negative control, respectively. Statistical analysis was conducted using […] PRISM version 8.4.3 for Windows. Significant values were considered at P < 0.05 and more significant values at P < 0.01, compared with the control.
Conditioned media were immunodepleted (ID) according to the methods previously described and our recently published report. Briefly, specific antibodies were bound to ELISA wells overnight (1 : 1000 dilution). The wells were then blocked and washed, then 300 μL of the conditioned medium (0.5 μg·μL^−1) treated as indicated, 72 h postserum starvation, was incubated with the antibodies bound to ELISA wells for 24 h. The ID media were then carefully removed and analyzed for the presence of the target protein or peptide by ELISA. The same amount of protein (3 µL of 600 µg·mL^−1 total protein) of each sample was analyzed in the experiments. Significant depletion (95–100%) was observed upon using each of the antibodies employed in this study.
Since addition of ATP appears to increase binding of HN to Aβ, and conversely, decreases the interaction of Aβ with AChE (Figs 3, 4, 5, 6), we tested the effect of added ATP on A549 and H1299 cell viability (Fig. 7). Exogenously added ATP at either 100 µM or 1 mM had no effect on viability of either A549 (Fig. 7A) or H1299 cells (Fig. 7B). […] To determine the effect of ID of AChE or HN in the absence or presence of added ATP on cell viability, ID media were prepared by first seeding 0.2 × 10^5 cells per well in 96‐well plates in 10% FBS‐supplemented media. The next day, the cells were incubated in serum‐free medium for 72 h, then ID of AChE or HN as described in Materials and methods. For cell viability assays, cells were seeded in 96‐well plates at 0.2 × 10^5 cells per well in 200 µL 10% FBS‐supplemented media followed by incubation in serum‐free medium for 12 h, then treated with the ID media for 48 h. […]

## Nc1ncnc2c1ncn2[C@@H]1O[C@H](COP(=O)(O)OP(=O)(O)OP(=O)(O)O)[C@@H](O)[C@H]1O [ATP, Adenosine triphosphate]
AChE-immunodepleted media
  effect of ATP on viability in AChE-depleted media: did not affect cell viability
ATP 100 µM
  effect of ATP on viability in HN-ID media: No change in cell viability
  effect on cell viability: no effect
ATP 1 mM
  effect of ATP on viability in HN-ID media: No change in cell viability
  effect on cell viability: no effect
